Test results reported in patent publication US12421271B2, “Solid forms of (2S,3S,4S,5R,6S)-3,4,5-trihydroxy-6-(((4AR, 10AR)-7-hydroxy-1-propyl-1,2,3,4,4A,5,10,10A-octahydrobenzo[g]quinolin-6-yl)oxy)tetrahydro-2H-pyran-2-carboxylic acid” (H. Lundbeck A/S, priority 2019, dated 2025).
Structures can show the parent of a compound that is named as a salt.

Tests used:
[1] = PK experiments in Wistar rats, plasma compound (I) after oral dosing of prodrugs; type: in vivo, rat; details: FIG. 1, doses equal to 287 μg/kg of compound (I)
Procedure: Plasma was placed on water-ice following collection. Final storage at approximately −70° C.
Mobile phase B: Acetonitrile. […] Flow rate 0.5 mL/min.
The rats had unrestricted access to the diet.
Mobile phase B: Acetonitrile+0.2% formic acid. […] Flow rate 0.3 mL/min.
Dosing and blood sampling for compound (Ic): Han Wistar rats were supplied by Envigo, UK. […] The rats received a standard laboratory diet Teklad 2014C. The rats had unrestricted access to the diet.

[2] = Stability studies of solid forms in sealed polyethylene bags (appearance, LC-UV, Karl Fischer water, XRPD); type: physicochemical; details: for Overall outcome of stability testing, in words: 25° C./60% RH and 40° C./75% RH; for Physical form: XRPD
Procedure: The substances were packed individually in sealed polyethylene bags, with a carton box as a secondary packaging material. During stability the different batches were tested for visual appearance, assay (anhydrous i.e. calculated as water free compound), impurities and water content. In addition, XRPD was been performed as described in Example 3 at selected time points.
LC-UV was run on Agilent HPLC consisting of Agilent 1200 HPLC or equivalent including autosampler and DAD detector (operating at 278 nm).
LC-conditions: The column was Synergi Polar-RP 4 μm; 4.6×150 mm operating at 40° C. with 1.0 ml/min of a binary gradient consisting of water/acetonitrile+[…] (90:10) (A) and water/acetonitrile+[…] (35:65) (B).
(§1) The amount of impurities was determined as % area of the peak of impurity relative to the area of the main peak.
The water content was determined by coulometric Karl Fischer titration according to the European Pharmacopoeia, chapter 2.5.32 (Metrohm 874 Oven Sample Processor and Metrohm 851 KF Coulometer). The water content was evaporated by heating samples to 150° C. and the water vapor was transferred by nitrogen to the titration chamber where it was titrated to endpoint using Hydranal Coulomat AG Oven (article number 34739) titration reagent.

[3] = Grinding, pressure and milling followed by XRPD; type: physicochemical; details: for Crystallinity by XRPD after pressure: DH1: 300 PSI for 5 minutes, K^+ salt: IR-press for 5 minutes; for Crystallinity by XRPD after grinding: grinded by hand with mortar and pestle; for Crystallinity by XRPD after subsequent storage of treated sample: 95% RH for 1 week
Procedure: A sample of the heptahydrate was grinded by hand using mortar and pestle for 2 minutes, and subsequently analyzed by XRPD. […] The samples were analysed by XRPD after the treatment. Subsequently, the samples were placed at 95% RH for 1 week and reanalysed by XRPD.

[4] = Stress stability, open dishes in the dark, LC-UV impurities; type: physicochemical; details: open dish, % area by LC-UV
Procedure: For the stress stability studies, the substances were stored in open dishes in the dark at 40° C./75% RH, 60° C. and 60° C./80% RH.
as §1
The stress stability testing was performed as described above, and the amount of degradation products were determined based on the LC-UV method described above.

[5] = Dynamic vapor sorption (DVS); type: physicochemical; details: for Hygroscopicity / behaviour towards humidity (DVS), in words: DH1: 5-80% RH, HH: 20-95% RH, K^+ salt: two cycles
Procedure: Dynamic vapor sorption (DVS) was further used to evaluate selected solid forms. Hygroscopicity and dehydration behavior can be investigated by DVS analysis. DVS experiments were performed using a DVS Advantage 01 instrument from Surface Measurement Systems. Samples of 4-10 mg of the solid forms were used for the analysis. […]

[6] = test system: rat locomotor activity; assay: Rat locomotor activity (hyperactivity) assay, open field, with PK/PD; type: in vivo
Procedure: Mass spectrometer (UPCLC-MS/MS) Waters Acquity I-Class-Waters Xevo TQ-S. Analytical column Acquity HSS T3 C18 50×2.1 mm, 1.8 μm. Mobile phase A: 10 mM NH4—Formate 0.2% formic acid:Acetonitril (95:5). Mobile phase B: 10 mM NH4—Formate 0.2% formic acid:Acetonitril (5:95). Gradient run from 95/5% to 5/95% in 2.40 minutes. Flow rate 0.3 mL/min. MRM detection of test items and the added analytical standards.
Animals for the study were as described in Example 10. Additionally, rats were administered a single dose of apomorphine subcutaneously.
In total, 206 male CD rats (Charles River, Germany) weighing 200-250 grams (165-190 grams upon arrival) were used in the study. Animals were housed at a standard temperature (22±1° C.) and in a light-controlled environment (lights on from 7 am to […]) with ad libitum access to food and water. The experiment described below was performed in accordance with the standard operating procedures of Charles River Discovery Research Services Finland Ltd. and in accordance with the national Animal Experiment Board of Finland (Eläinkoelautakunta, ELLA) authority on animal testing.
The test device is a square Plexiglass-arena (measuring 40×40×40 cm), in which the movement paths of the rats are recorded by an activity monitor (Med. Associates Inc.). Before the test period is initiated, rats are habituated to their test cage for 60 minutes. Upon completion of habituation, animals were treated with either compound or vehicle and placed back into the open field apparatus. The main test parameter measured is ambulatory distance (recorded in 5-minute segments). Overall time of measurement after receiving initial treatment was 360 minutes. Total follow up period in the study was 420 min, including 60 min of habituation.

Water content, % ([2]; 25° C./60% RH, 6 months) [%] | Physical form ([2]; 25° C./60% RH, 6 months) | Water content, % ([2]; 25° C./60% RH, Initial) [%] | Physical form ([2]; 25° C./60% RH, Initial) | Water content, % ([2]; 40° C./75% RH, 6 months) [%] | Physical form ([2]; 40° C./75% RH, 6 months) | Water content, % ([2]; 40° C./75% RH, Initial) [%] | Physical form ([2]; 40° C./75% RH, Initial) | Hygroscopicity / behaviour towards humidity (DVS), in words [5] | Water content, % ([2]; 25° C./60% RH, 3 months) [%] | Water content, % ([2]; 25° C./60% RH, 9 months) [%] | Physical form ([2]; 25° C./60% RH, 9 months) | Water content, % ([2]; 25° C./60% RH, 18 months) [%] | Water content, % ([2]; 40° C./75% RH, 3 months) [%] | Compound | Crystallinity by XRPD after pressure [3] | Crystallinity by XRPD after grinding [3] | other results
 |  |  |  |  |  |  |  |  |  |  |  |  |  | CCCN1CCC[C@@H]2Cc3c(ccc4c3OCO4)C[C@H]21 [Compound (Ib)] |  |  | Plasma profile of compound (I) after oral dosing, in words [1]: early and high peak concentrations
7.6 | DH1 | 7.6 | DH1 | 7.5 | DH1 | 7.6 | DH1 | non-hygroscopic |  |  |  |  |  | CCCN1CCC[C@@H]2Cc3c(ccc(O)c3O[C@@H]3O[C@H](C(=O)O)[C@@H](O)[C@H](O)[C@H]3O)C[C@H]21 [DH1, (2S,3S,4S,5R,6S)-3,4,5-trihydroxy-6-(((4aR,10aR)-7-hydroxy-1-propyl-1,2,3,4,4a,5,10,10a-octahydrobenzo[g]quinolin-6-yl)oxy)tetrahydro-2H-pyran-2-carboxylic acid] | did not show sign of decreased crystallinity | did not show sign of decreased crystallinity | Overall outcome of stability testing, in words ([2]; listed as dihydrate): no changes in appearance, water content or physical form (XRPD); Water content, % ([2]; 25° C./60% RH, 4 months): 7.6%; Physical form ([2]; 25° C./60% RH, 4 months): DH1; Water content, % ([2]; 25° C./60% RH, 10 months): 7.4%; Water content, % ([2]; 40° C./75% RH, 4 months): 7.4%; Physical form ([2]; 40° C./75% RH, 4 months): DH1; Crystallinity by XRPD after milling ([3]; milled vs un-milled material): no apparent change in crystallinity; Total sum of impurities after 6 months storage ([4]; 40° C./75% RH, listed as Dihydrate): 0.05%; Total sum of impurities after 6 months storage ([4]; 60° C., listed as Dihydrate): 1.0%; Total sum of impurities after 6 months storage ([4]; 60° C./80% RH, listed as Dihydrate): 0.05%; Water absorbed or desorbed (DVS) ([5]; humidity range 5-90% RH): Less than 0.1%
0.17 | Alfa form | 0.11 | Alfa form | 0.25 | Alfa form | 0.11 | Alfa form | stable towards change in humidity | 0.22 | <0.10 | Alfa form | 0.23 | 0.38 | CCCN1CCC[C@@H]2Cc3c(ccc(O)c3O[C@@H]3O[C@H](C(=O)O)[C@@H](O)[C@H](O)[C@H]3O)C[C@H]21 [K^+ salt, (2S,3S,4S,5R,6S)-3,4,5-trihydroxy-6-(((4aR,10aR)-7-hydroxy-1-propyl-1,2,3,4,4a,5,10,10a-octahydrobenzo[g]quinolin-6-yl)oxy)tetrahydro-2H-pyran-2-carboxylic acid] | some broadening of the XRPD reflections | severe broadening of the XRPD reflections | Overall outcome of stability testing, in words ([2]; listed as potassium salt): remained in the same physical form; Water content, % ([2]; 25° C./60% RH, 13 months): <0.10%; Physical form ([2]; 25° C./60% RH, 13 months): Alfa form; Physical form ([2]; 25° C./60% RH, 18 months): Alfa form; Crystallinity by XRPD after subsequent storage of treated sample [3]: regained crystallinity after storage at high humidity; Total sum of impurities after 6 months storage ([4]; 40° C./75% RH, listed as Potassium salt): 0.10%; Total sum of impurities after 6 months storage ([4]; 60° C., listed as Potassium salt): 0.10%; Total sum of impurities after 6 months storage ([4]; 60° C./80% RH, listed as Potassium salt): 1.0%; Weight change (DVS) ([5]; at 80% RH): up to 0.6%; Further weight change (DVS) ([5]; at 90% RH): 1%
 |  |  |  |  |  |  |  |  |  |  |  |  |  | CN1CCc2cccc3c2[C@H]1Cc1ccc(O)c(O)c1-3 [apomorphine, reference compound] |  |  | Relationship of behavioral effect and plasma concentration ([6]; (Id) 100 μg/kg p.o. (FIG. 4), apomorphine 3 mg/kg s.c. (FIG. 5)): correlation between plasma concentrations of apomorphine and hyperactive behavior; Start of locomotor effect post-administration ([6]; (Id) 10 to 300 μg/kg p.o., apomorphine 3 mg/kg s.c., pramipexole 0.3 mg/kg s.c., FIG. 2): immediate; Time post administration at which hyperactivity is gone ([6]; apomorphine 3 mg/kg s.c., 150-minute time point): 1.5 h

Compound | Water content, % ([2]; 25° C./60% RH, 6 months) [%] | Physical form ([2]; 25° C./60% RH, 6 months) | Water content, % ([2]; 25° C./60% RH, Initial) [%] | Physical form ([2]; 25° C./60% RH, Initial) | Water content, % ([2]; 40° C./75% RH, 6 months) [%] | Physical form ([2]; 40° C./75% RH, 6 months) | Water content, % ([2]; 40° C./75% RH, Initial) [%] | Physical form ([2]; 40° C./75% RH, Initial) | Hygroscopicity / behaviour towards humidity (DVS), in words [5] | Water content, % ([2]; 25° C./60% RH, 3 months) [%] | Water content, % ([2]; 25° C./60% RH, 9 months) [%] | Physical form ([2]; 25° C./60% RH, 9 months) | Water content, % ([2]; 25° C./60% RH, 18 months) [%] | Water content, % ([2]; 40° C./75% RH, 3 months) [%] | Crystallinity by XRPD after pressure [3] | Crystallinity by XRPD after grinding [3] | other results
CCCN1CCC[C@@H]2Cc3c(ccc(O)c3O[C@@H]3O[C@H](C(=O)O)[C@@H](O)[C@H](O)[C@H]3O)C[C@H]21 [HH, (2S,3S,4S,5R,6S)-3,4,5-trihydroxy-6-(((4aR,10aR)-7-hydroxy-1-propyl-1,2,3,4,4a,5,10,10a-octahydrobenzo[g]quinolin-6-yl)oxy)tetrahydro-2H-pyran-2-carboxylic acid] | 20.0 |  | 21.6 |  | 7.6 |  | 21.6 |  | absorbs and desorbs water at humidity between 20% RH and 95% RH without changing the crystal form | 22.3 | 21.6 | Form C | 20.9 | 7.6 |  |  | Overall outcome of stability testing, in words [2]: Changes in visual appearance, water content and physical form (XRPD) were seen; Water content, % ([2]; 25° C./60% RH, 12 months): 15.0%; Physical form ([2]; 40° C./75% RH, 3 months): DH1; Crystallinity by XRPD after subsequent storage of treated sample ([3]; listed as heptahydrate): regained crystallinity after storage; Crystallinity by XRPD after grinding ([3]; listed as heptahydrate): reflections became a bit broader and an amorphous halo became visible; Total sum of impurities after 6 months storage ([4]; 40° C./75% RH, listed as Heptahydrate): <0.05%; Total sum of impurities after 6 months storage ([4]; 60° C., listed as Heptahydrate): 4.3%; Total sum of impurities after 6 months storage ([4]; 60° C./80% RH, listed as Heptahydrate): <0.05%; Behaviour at low humidity (DVS), in words ([5]; humidity below 20%): changes into other less hydrated forms
